What all share (test): Assay B: in vitro antibacterial activity, broth microdilution MIC (NCCLS)
Common to all, as to format: cell-based
In general terms: Broth dilution looks for growth in wells or tubes with falling amounts of substance.

Test [1] relates to Staphylococcus aureus ATCC 6538P. Conditions: Table 2, Assay B, cation-adjusted Mueller Hinton broth, 35° C., 16 to 20 hr; code A = Staphylococcus aureus ATCC 6538P; unit assumed. As to the method: (§1) Assay B. Determination of Biological Activity In Vitro Assay of Antibacterial Activity
(§2) Representative compounds of the invention were assayed in vitro for antibacterial activity. The susceptibilities of aerobic, nonfastidious species were determined visually by broth microdilution as described by the National Committee for Clinical Laboratory Standards (NCCLS) (National Committee for Clinical Laboratory Standards. 1997. Methods for dilution antimicrobial susceptibility tests for bacteria that grow aerobically. Approved standard M7-A4. National Committee for Clinical Laboratory Standards. Wayne, Pa.). In brief, serial two-fold dilutions of test compounds were made in cation-adjusted Mueller Hinton broth at two-times the final concentration. Inocula were prepared from overnight cultures of test strains. Tests were inoculated with a suspension of bacteria in Mueller Hinton broth to achieve a final density of approximately 5×10^5 CFU/mL. Tests were incubated at 35° C. in ambient air for 16 to 20 hr. Minimum Inhibitory Concentrations (MICs) were determined as the lowest drug concentration completely inhibiting growth. Ciprofloxacin was included as a control. For testing S. pneumoniae, the cation-adjusted Mueller Hinton broth was supplemented with 3% lysed horse blood and the incubation period was extended to 20 to 24 hr. For testing H. influenzae, the cation-adjusted Mueller Hinton broth was supplemented with 5 g/L yeast extract, […] and 15 mg/L NAD and incubation was extended to 20 to 24 hr..

Test [2] deals with Enterococcus faecalis PIU 1967. Particulars: Table 2, Assay B, cation-adjusted Mueller Hinton broth, 35° C., 16 to 20 hr; code B = Enterococcus faecalis PIU 1967; unit assumed. On the procedure: as §1, §2
For test [3], the system named is Streptococcus pneumoniae ATCC 6303. Conditions: Table 2, Assay B, Mueller Hinton broth with 3% lysed horse blood, 20 to 24 hr; code F = Streptococcus pneumoniae ATCC 6303; unit assumed. As to the method: as §1, §2
In another test the test system is Escherichia coli JUHL. Particulars: Table 2, Assay B, cation-adjusted Mueller Hinton broth, 35° C., 16 to 20 hr; code D = Escherichia coli JUHL; unit assumed. As to the method:
as §1, §2

For test [4], the system named is Haemophilus influenzae DILL AMP R. Conditions: Table 2, Assay B, Mueller Hinton broth with yeast extract, hematin and NAD, 20 to 24 hr; code E = Haemophilus influenzae DILL AMP R; unit assumed. As to the method: as §1, §2

On to `COc1c(-c2cc3c(s2)C(=O)CCC3)ccc2c(=O)c(C(=O)O)cn(C3CC3)c12` [Example 61, 1-cyclopropyl-8-methoxy-4-oxo-7-(7-oxo-4,5,6,7-tetrahydro-1-benzothien-2-yl)-1,4-dihydro-3-quinolinecarboxylic acid], for which the Antibacterial Activity (MIC's), A in test [1] was determined as 0.03 µg/mL. Besides, in test [2], the Antibacterial Activity (MIC's), B was 0.25 µg/mL. The molecule also gave an Antibacterial Activity (MIC's), F in test [3] of 0.125 µg/mL. The same molecule registered an Antibacterial Activity (MIC's), D in the test with Escherichia coli JUHL of 2 µg/mL. Further, the Antibacterial Activity (MIC's), E in test [4] turned out to be 0.125 µg/mL.
Consider `CON=C1CCCc2cc(-c3ccc4c(=O)c(C(=O)O)cn(C5CC5)c4c3OC)sc21` [Example 63, 1-cyclopropyl-8-methoxy-7-((7E/Z)-7-(methoxyimino)-4,5,6,7-tetrahydro-1-benzothien-2-yl)-4-oxo-1,4-dihydro-3-quinolinecarboxylic acid], for which the Antibacterial Activity (MIC's), A in test [1] was 0.015 µg/mL. In test [2], this molecule showed an Antibacterial Activity (MIC's), B of 0.125 µg/mL. The molecule also had an Antibacterial Activity (MIC's), F in test [3] of 0.25 µg/mL. This molecule yielded an Antibacterial Activity (MIC's), D with Escherichia coli JUHL of 0.05 µg/mL. The same molecule displayed an Antibacterial Activity (MIC's), E in test [4] of 0.06 µg/mL.
The like results for `CON=C1CCCc2sc(-c3ccc4c(=O)c(C(=O)O)cn(C5CC5)c4c3OC)cc21` [Example 64, 1-cyclopropyl-8-methoxy-7-((4E/Z)-4-(methoxyimino)-4,5,6,7-tetrahydro-1-benzothien-2-yl)-4-oxo-1,4-dihydro-3-quinolinecarboxylic acid] were, in that order, 0.03 µg/mL, 0.25 µg/mL, 0.125 µg/mL, 2 µg/mL and 0.25 µg/mL.
The molecule `CON=C1CCc2cc(-c3ccc4c(=O)c(C(=O)O)cn(C5CC5)c4c3OC)sc2C1` [Example 66, 1-cyclopropyl-8-methoxy-7-((6E/Z)-6-(methoxyimino)-4,5,6,7-tetrahydro-1-benzothien-2-yl)-4-oxo-1,4-dihydro-3-quinolinecarboxylic acid] registered an Antibacterial Activity (MIC's), A in test [1] of 0.06 µg/mL. Further, the Antibacterial Activity (MIC's), B in test [2] is 0.5 µg/mL. In test [3], this molecule yielded an Antibacterial Activity (MIC's), F of 0.5 µg/mL. In addition, the Antibacterial Activity (MIC's), D with Escherichia coli JUHL came out at 2 µg/mL. In test [4], this molecule came in with an Antibacterial Activity (MIC's), E of 0.5 µg/mL.
In the case of `COc1c(-c2cc3c(s2)CCCC3=NN2CCOCC2)ccc2c(=O)c(C(=O)O)cn(C3CC3)c12` [Example 68, 1-cyclopropyl-8-methoxy-7-((4E/Z)-4-(4-morpholinvlimino)-4,5,6,7-tetrahydro-1-benzothien-2-yl)-4-oxo-1,4-dihydro-3-quinolinecarboxylic acid], the Antibacterial Activity (MIC's), A in test [1] was 0.008 µg/mL. For the same molecule, the Antibacterial Activity (MIC's), B in test [2] came to 0.125 µg/mL. In test [3], this molecule showed an Antibacterial Activity (MIC's), F of 0.125 µg/mL. In the test on Escherichia coli JUHL, the Antibacterial Activity (MIC's), D was 0.5 µg/mL. The Antibacterial Activity (MIC's), E in test [4] was 0.06 µg/mL.
The molecule `COc1c(-c2cc3c(s2)CCC(CN)C3)ccc2c(=O)c(C(=O)O)cn(C3CC3)c12.Cl` (stereo not drawn) [Example 70, 7-(5-(aminomethyl)-4,5,6,7-tetrahydro-1-benzothien-2-yl)-1-cyclopropyl-8-methoxy-4-oxo-1,4-dihydro-3-quinolinecarboxylic acid hydrochloride] showed an Antibacterial Activity (MIC's), A in test [1] of 0.03 µg/mL. Moreover, the Antibacterial Activity (MIC's), B in test [2] turned out to be 0.03 µg/mL. This molecule yielded an Antibacterial Activity (MIC's), F in test [3] of 0.06 µg/mL. The same molecule registered an Antibacterial Activity (MIC's), D with Escherichia coli JUHL of 0.125 µg/mL. This molecule also displayed an Antibacterial Activity (MIC's), E in test [4] of 0.015 µg/mL.
With `COc1c(-c2cc3c(s2)CC(N)CC3)ccc2c(=O)c(C(=O)O)cn(C3CC3)c12.O=C(O)C(F)(F)F` (stereo not drawn) [Example 71, 7-(6-amino-4,5,6,7-tetrahydro-1-benzothien-2-yl)-1-cyclopropyl-8-methoxy-4-oxo-1,4-dihydro-3-quinolinecarboxylic acid, trifluoroactic acid salt], the Antibacterial Activity (MIC's), A in test [1] came to 0.03 µg/mL. This molecule also yielded an Antibacterial Activity (MIC's), B in test [2] of 0.03 µg/mL. In test [3], this molecule came in with an Antibacterial Activity (MIC's), F of 0.015 µg/mL. This molecule also gave an Antibacterial Activity (MIC's), D in the test with Escherichia coli JUHL of 0.06 µg/mL. Further, the Antibacterial Activity (MIC's), E in test [4] is 0.015 µg/mL.
Turning to `COc1c(-c2cc3c(s2)CCCC3=NOCc2ccccc2)ccc2c(=O)c(C(=O)O)cn(C3CC3)c12` [Example 73], the Antibacterial Activity (MIC's), A in test [1] was determined as 0.015 µg/mL. This molecule had an Antibacterial Activity (MIC's), B in test [2] of 0.06 µg/mL. For the same molecule, the Antibacterial Activity (MIC's), F in test [3] came out at 0.06 µg/mL. Also, the Antibacterial Activity (MIC's), D in the test on Escherichia coli JUHL worked out at 0.5 µg/mL. In addition, the Antibacterial Activity (MIC's), E in test [4] was 0.03 µg/mL.
`COc1c(-c2cc3c(s2)CCCC3=NN2CCCC2)ccc2c(=O)c(C(=O)O)cn(C3CC3)c12` [Example 74, 1-cyclopropyl-8-methoxy-4-oxo-7-((4E/Z)-4-(1-pyrrolidinylimino)-4,5,6,7-tetrahydro-1-benzothien-2-yl)-1,4-dihydro-3-quinolinecarboxylic acid]: the Antibacterial Activity (MIC's), A in test [1] turned out to be 0.015 µg/mL. In addition, the Antibacterial Activity (MIC's), B in test [2] came out at 0.25 µg/mL. Further, in test [3], the Antibacterial Activity (MIC's), F was 0.125 µg/mL. In addition, the Antibacterial Activity (MIC's), D in the test on Escherichia coli JUHL came to 0.5 µg/mL. Besides, the Antibacterial Activity (MIC's), E in test [4] was found to be 0.06 µg/mL.
For `COc1c(-c2cc3c(s2)CCC(N)C3)ccc2c(=O)c(C(=O)O)cn(C3CC3)c12.Cl` (stereo not drawn) [Example 76, 7-(5-amino-4,5,6,7-tetrahydro-1-benzothien-2-yl)-1-cyclopropyl-8-methoxy-4-oxo-1,4-dihydro-3-quinolinecarboxylic acid hydrochloride] the same measures were 0.015 µg/mL, 0.06 µg/mL, 0.03 µg/mL, 0.06 µg/mL and 0.03 µg/mL.
The like results for `CNC1CCCc2sc(-c3ccc4c(=O)c(C(=O)O)cn(C5CC5)c4c3OC)cc21.Cl` (stereo not drawn) [Example 77, 1-cyclopropyl-8-methoxy-7-[4-(methylamino)-4,5,6,7-tetrahydro-1-benzothien-2-yl]-4-oxo-1,4-dihydro-3-quinolinecarboxylic acid hydrochloride] were, in that order, 0.015 µg/mL, 0.125 µg/mL, 0.03 µg/mL, 0.25 µg/mL and 0.06 µg/mL.
As for `CCON=C1CCc2sc(-c3ccc4c(=O)c(C(=O)O)cn(C5CC5)c4c3OC)cc2C1` [Example 78, 1-cyclopropyl-7-((5E/Z)-5-(ethoxyimino)-4,5,6,7-tetrahydro-1-benzothien-2-yl)-8-methoxy-4-oxo-1,4-dihydro-3-quinolinecarboxylic acid], the Antibacterial Activity (MIC's), A in test [1] worked out at 0.125 µg/mL. The same molecule yielded an Antibacterial Activity (MIC's), B in test [2] of 1 µg/mL. Moreover, the Antibacterial Activity (MIC's), F in test [3] turned out to be 0.25 µg/mL. The Antibacterial Activity (MIC's), D with Escherichia coli JUHL was 4 µg/mL. In test [4], this molecule displayed an Antibacterial Activity (MIC's), E of 2 µg/mL.
On to `COc1c(-c2cc3c(s2)CCC(=NOCc2ccccc2)C3)ccc2c(=O)c(C(=O)O)cn(C3CC3)c12` [Example 79, 7-((5E/Z)-5-((benzyloxy)imino)-4,5,6,7-tetrahydro-1-benzothien-2-yl)-1-cyclopropyl-8-methoxy-4-oxo-1,4-dihydro-3-quinolinecarboxylic acid], for which the Antibacterial Activity (MIC's), A in test [1] turned out to be 0.125 µg/mL. In test [2], this molecule displayed an Antibacterial Activity (MIC's), B of 1 µg/mL. The molecule further yielded an Antibacterial Activity (MIC's), F in test [3] of 0.5 µg/mL. Besides, the Antibacterial Activity (MIC's), D in the test on Escherichia coli JUHL is 4 µg/mL. In test [4], this molecule showed an Antibacterial Activity (MIC's), E of 1 µg/mL.
`COc1c(-c2cc3c(s2)CCCC3=NNC(N)=O)ccc2c(=O)c(C(=O)O)cn(C3CC3)c12` [Example 80, 7-((4E/Z)-4-((aminocarbonyl)hydrazono)-4,5,6,7-tetrahydro-1-benzothien-2-yl)-1-cylopropyl-8-methoxy-4-oxo-1,4-dihydro-3-quinolinecarboxylic acid] yielded an Antibacterial Activity (MIC's), A in test [1] of 32 µg/mL. In test [2], this molecule showed an Antibacterial Activity (MIC's), B of more than 64 µg/mL. Moreover, the Antibacterial Activity (MIC's), F in test [3] was found to be 0.03 µg/mL. In the test on Escherichia coli JUHL, this molecule showed an Antibacterial Activity (MIC's), D of more than 64 µg/mL. This molecule also showed an Antibacterial Activity (MIC's), E in test [4] of 0.06 µg/mL.
Take `COc1c(-c2cc3c(s2)CCCC3N(C)C)ccc2c(=O)c(C(=O)O)cn(C3CC3)c12.Cl` (stereo not drawn) [Example 83, 1-cyclopropyl-7-(4-(dimethylamino)-4,5,6,7-tetrahydro-1-benzothien-2-yl)-8-methoxy-4-oxo-1,4-dihydro-3-quinolinecarboxylic acid hydrochloride]: the Antibacterial Activity (MIC's), A in test [1] amounted to 0.125 µg/mL. The molecule further yielded an Antibacterial Activity (MIC's), B in test [2] of 0.5 µg/mL. The Antibacterial Activity (MIC's), F in test [3] turned out to be 0.125 µg/mL. The same molecule gave an Antibacterial Activity (MIC's), D with Escherichia coli JUHL of 0.5 µg/mL. Moreover, in test [4], the Antibacterial Activity (MIC's), E turned out to be 0.25 µg/mL.

(Values after patent publication US20020049223A1, “Quinoline and naphthyridine carboxylic acid antibacterials” (priority 1999, published 2002).)
